According to PubChem BioAssay AID179 (DTP/NCI, 2004):
Active and inactive are the calls of the source.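 Rule for the calls: active = compounds giving half or more protection of infected cells from virus-caused growth loss, again on retest; inactive = the rest.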 Where a SMILES comes first, the peptide text is derived from it.

Tested on: CEM cells HIV-1 protection, formazan growth assay
Test: NCI AIDS Antiviral Assay
Details: for IC50: measured here: growth of uninfected CEM cells
Outline: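 Human CEM cells, uninfected and HIV-1-infected, exposed to five drug concentrations; growth measured by soluble formazan assay and scored as percent protection from infection, with protecting compounds retested.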

Compound | outcome | EC50 | IC50
COC1=C(C)C(=O)c2nc(COC(C)=O)ccc2C1=O | inactive |  | 
CC1=CC(=O)/C(=C/n2c(=S)sc3ccccc32)C(=O)O1 |  | > 200 µM | > 200 µM
C/C(=C\c1ccccc1)C(=O)c1c(C)cc(C)cc1C |  | > 38 µM | > 38 µM
c1ccc2cc3c(NC4=NCCO4)cccc3cc2c1 |  | > 200 µM | 64.6 µM
C=C1C2CC[C@H]3C4(C)CCCC(C)(C(=O)O)[C@H]4CCC3(C2)[C@@H]1OC(C)=O (stereo partly drawn) |  | > 105 µM | 77.6 µM
CCOC(=O)C(=[N+]=[N-])C(=O)C[N+]12CCN(CC1)CC2 |  | > 200 µM | > 200 µM
COC(=O)C[CH](C(=O)OC)[Ge]([CH3])([CH3])[S]c1ccccc1 (stereo not drawn) |  | > 100 µM | 18.2 µM
N#CC1CC(c2cccs2)Nc2ccccc2N1 (stereo not drawn) |  | > 141 µM | 46.8 µM
O=c1[nH]nc(Cc2ccc([N+](=O)[O-])cc2)n1CCO |  | > 200 µM | > 200 µM
Clc1ccc(N=C/C=C/Nc2ccc(Cl)cn2)nc1 |  | > 200 µM | 13.8 µM
CCOC(=O)C1SC(=Nc2ccc(Cl)cc2)N=C1C (stereo not drawn) |  | > 87.1 µM | > 87.1 µM
C[C@]12Cc3cn[nH]c3C(=O)C1CC[C@@H]1C2CC[C@@]2(C)C1CC[C@]2(C)O (stereo partly drawn) |  | > 38 µM | > 38 µM
COc1ccccc1NC(=O)C(=O)C(C(=O)c1ccccc1F)C1OC(=O)c2ccccc21 (stereo not drawn) |  | > 288 µM | 20.9 µM
CCCCCCN(CCCCCC)C(F)(F)C(=O)Nc1ccc(S(=O)(=O)c2ccc(NC(=O)C(F)(F)N(CCCCCC)CCCCCC)cc2)cc1 |  | > 100 µM | 5.13 µM
C1N2CN3CN1CN(C2)C3.[Cu+2] | inactive |  | 
CN(C)c1nc(N)nc(Nc2ccc(Br)cc2)c1N=O |  | > 200 µM | 37.2 µM
O=c1cc(-c2ccccc2)oc2cc(OCCSCCCCCCCCCCSCCOc3ccc4c(=O)cc(-c5ccccc5)oc4c3)ccc12 |  | > 1.95 µM | > 1.95 µM
CCCCCCCCCCCCCCCCOCC(COC1OC(CO)C(O)C(O)C1O)OCCCCCCCCCCCCCCCC (stereo not drawn) |  | > 19.5 µM | 

Compound | outcome | EC50 | IC50
OC1COC2CC(Nc3ccccn3)OC12 (stereo not drawn) |  | > 200 µM | > 200 µM
CSc1ncc2c(C#N)c3ccccn3c(=O)c2n1 |  | > 200 µM | > 200 µM
c1ccn2nncc2c1 |  | > 200 µM | > 200 µM
CCCCCCCCOCC(O)CO (stereo not drawn) | inactive |  | 
CC(C)CC(N)C(=O)NC(CC(=O)O)C(=O)NC(CCCCN)C(=O)NC(C)C(=O)NC(CO)C(=O)NC(Cc1ccc(O)cc1)C(=O)NC(CO)C(=O)NC(C(=O)NC(CC(N)=O)C(=O)O)C(C)O (stereo not drawn) (H-LDKASYSTN-OH; configuration not given here) |  | > 50.1 µM | > 50.1 µM
O=C(N/C(=C\c1ccccc1O)c1nc2ccccc2[nH]1)c1ccccc1 |  | > 51.3 µM | > 51.3 µM
Clc1ccc(/C=N/Nc2nnc3c4ccccc4c4ncccc4c3n2)cc1 |  | > 50.1 µM | > 50.1 µM
COC(=O)c1cc(C(=CC(=O)OC(C)(C)C)c2cc(Cl)c(OC)c(C(=O)OC)c2)cc(Cl)c1OC |  | > 100 µM | 14.1 µM
NP(N)(=O)NC(=O)c1ccc(F)cc1 |  | > 200 µM | > 200 µM
Cc1cc(N=O)cc(C)c1O |  | > 200 µM | 5.13 µM
ON(Cc1ccccc1)C(=S)c1ccccc1 |  | > 5.37 µM | 0.372 µM
O=c1c(O)c(-c2ccc(-c3oc4ccccc4c(=O)c3O)cc2)oc2ccccc12 |  | > 200 µM | 93.3 µM
O=c1c2ccccc2oc2ccccc12.[Cl][Hg][Cl] |  | > 11.2 µM | > 11.2 µM
N=C(N)SCCc1ccncc1 |  | > 200 µM | 155 µM
O=C1CCC(c2ccccc2)(C2(c3ccccc3)CCC(=O)O2)O1 (stereo not drawn) |  | > 200 µM | 151 µM
O=[N+]([O-])/C(C(Cl)=C(Cl)Cl)=C1\NCCO1 |  | > 200 µM | 115 µM
N.N.N.O=[N+]([O-])[O-].O=[N+]([O-])[O-].O=[N+]([O-])[O-].O=[N+]([O-])[O-].[Co+3] |  | > 692 µM | 117 µM
O=c1cc(N2CCOCC2)n2ccccc2n1 |  | > 200 µM | > 200 µM
